Test results taken from US12109177B2 (priority 2021, dated 2024).
Entries after “also recorded” stand apart in the source; their conditions may differ. Where two headings read alike, the source gives them in different places.

Experiments:
VX2 brain tumor = details: rabbit, in vivo
blood neutrophils [1] = details: rabbit, in vivo
blood neutrophils [2] = details: mouse, in vivo
flank GL261 tumor = details: in vivo

SMILES | long-term survivors (VX2 brain tumor) | blood neutrophil count (blood neutrophils [1]) | deaths from tumor regrowth (VX2 brain tumor) | intratumoral accumulation of neutrophils (VX2 brain tumor) | blood neutrophil count (blood neutrophils [2]) | other blood cell counts (blood neutrophils [2]) | lymphocyte count (blood neutrophils [2]; ip) | mice died of treatment-related (immediate) toxicity (flank GL261 tumor; female, C57BL6, mouse) | mice cured (total tumor clearance, absence of any tumor after 3 weeks) (flank GL261 tumor; mouse) | mice with partial tumor clearance (initial reduction, later regrowth) (flank GL261 tumor; mouse) | therapeutic effect of agent alone (flank GL261 tumor; mouse) | lymphocyte counts (blood neutrophils [1]) | other blood cell types (blood neutrophils [1]) | time to neutrophil count rebound after spore injection (blood neutrophils [1])
O=P1(N(CCCl)CCCl)NCCCO1 (stereo not drawn) [CPA, cyclophosphamide] | without any long-term survivor | significant neutrophil suppression | – | – | – | – | – | – | – | – | – | – | – | –
NC(=O)NO [HU, hydroxyurea] | 8 | – | one | effective in suppressing the intratumoral accumulation of neutrophils | greatly suppressed the neutrophil levels; also recorded: drastically reduced the neutrophil counts | also affected in various degrees | significant drop of lymphocytes | 2/12 | 9/12 | 1/12 | did not show any noticeable therapeutic effects | not significantly affected | has not affected other blood cell types significantly | at least 3 days
